Reference: patent EP0937460A2, “Use of an antidiarrheal for the manufacture of a medicament for the treatment of inflammatory conditions” (Adolor Corporation, priority 1994, dated 1995)

Assays:
Assay type in all cases: cell-based
TNF production [1] = experiment: Inhibition of LPS-stimulated TNF production in the human monocytic cell line THP-1 (ELISA); details: for inhibition at 10 µM / activity at 10 µM: Homo sapiens; for inhibition at 10 µM / effectiveness against LPS-stimulated TNF production (in words): LPS-stimulated THP-1 cells; for inhibition at 10 µM: drug 10 µM, read-out: inhibition of TNF production; for TNF LEVEL % Control (LPS alone); Ave. ± S.D. / activity at 10 µM: THP-1 cells, DRUG [10 µM], LPS 1 µg/mL; for activity at 10 µM: 6 h, read-out: TNF LEVEL % Control (LPS alone), Ave. ± S.D.; for effectiveness against LPS-stimulated TNF production (in words): 10 µM
Description: Cultures were maintained by the addition of fresh growth medium to a T-75 or T-150 flask of cells in suspension, or by pelleting the cells and re-suspending them in the appropriate volume of fresh medium. Maximum cell density was 1.0 x 10^6 cells per mL and cultures were seeded at a minimum density of 0.2 x 10^6 cells per ml.
THP-1 cells were plated into 24-well plates at a density of 1.0 x 10^6 cells per mL in 0.5 mL medium per well. […] For measurement of IL-1α and IL-1β production, THP-1 cells were incubated with 500 ng/mL or 50 ng/mL LPS and incubated for 16 hours. Levels of secreted cytokine were measured in cell supernatants as for TNF. Cell-associated species were measured in cell lysates which were prepared by repetitive freeze-thawing of cells. For in vitro screening, drugs at 10 µM concentration were co-administered with LPS. […] Drug effects on cell viability were assessed by the MTT assay. […] Water-soluble drugs were dissolved in aqueous solutions such as RPMI or deionized H20. The final concentration of DMSO in the incubation medium was at or below 0.01% and that of ethanol was at or below 0. 1%. The effect on cell viability was evaluated by the MTT assay.

TNF production [2] = experiment: Inhibition of LPS-stimulated TNF production in the mouse macrophage line RAW 264.7 (ELISA); details: RAW cells; for inhibition at 10 µM: LPS 10 ng/mL, read-out: inhibition of LPS-stimulated TNF secretion; for TNF LEVEL % Control (LPS alone); Ave. ± S.D. / activity at 10 µM: DRUG [10 µM], LPS at 10 ng/mL; for activity at 10 µM: RAW264.7, 6 h, read-out: TNF LEVEL % Control (LPS alone), Ave. ± S.D.
Description: Cells were passaged at confluence by scraping and routinely plated at a density of 0.25 x 10^6 and 0.5 x 10^6 cells per T-75 and T-150, respectively.
Typically, RAW cells were plated at 0.25 x 10^6 cells per well of a 24-well plate, in 0.5 mL media per well on the day prior to experimentation. […] 1%. Drugs were co-administered with the stimulant, LPS. After a 6-hr incubation period with LPS ± drug (n = 3-4), the media from the experimental wells was harvested, the cells were removed by microcentrifugation, and the media assayed for TNF by ELISA. Drugs were screened at 10 µM for their ability to alter TNF production by cells stimulated with 1 µg/mL or 10 ng/mL LPS. Dexamethasone, an anti-inflammatory corticosteroid, served as the reference for inhibition of the LPS response.

TNF production [3] = experiment: Inhibition of TPA-stimulated TNF production in human epidermal keratinocytes (ELISA); details: for activity at 10 µM: epidermal keratinocytes, read-out: TNF LEVEL % Control (LPS alone), Ave. ± S.D.
[4] = Mus musculus, RAW264.7, drug 10 µM
[5] = Homo sapiens, HEK cells, DRUG [10 µM], stimulation by TPA 10 ng/mL

NCCCCCCNS(=O)(=O)c1cccc2c(Cl)cccc12 [W-7]
inhibition at 10 µM (TNF production [1]): 40 to 50%

CCCCOc1cc(CC2CNC(=O)N2)ccc1OC (stereo not shown) [RO 20-1724]
inhibition at 10 µM (TNF production [1]): 55% | TNF LEVEL % Control (LPS alone); Ave. ± S.D. (TNF production [1]): 45±34 % Control | IC50 (TNF production [2]; Mus musculus, RAW264.7): 1 to 10 nM | inhibition at 10 µM (TNF production [2]; [4]): 47% | TNF LEVEL % Control (LPS alone); Ave. ± S.D. (TNF production [2]): 47±23 % Control

C[C@@H]1C[C@H]2[C@@H]3CCC4=CC(=O)C=C[C@]4(C)[C@@]3(F)[C@@H](O)C[C@]2(C)[C@@]1(O)C(=O)CO [Dexamethasone, dexamethasone]
activity at 10 µM (TNF production [1]): 33 ± 14% | inhibition at 10 µM (TNF production [1]): 67% | activity at 10 µM (TNF production [2]; Mus musculus): 39 ± 27% | inhibition of the stimulated production of TNF (decrease of secreted TNF vs LPS alone) (TNF production [2]; drug 10 µM, LPS dose not stated): 60% | inhibition at 10 µM (TNF production [3]; Homo sapiens, Keratinocyte, keratinocytes, TPA 10 ng/mL, drug 10 µM, read-out: inhibition of the response to TPA (TNF production)): > 55% | activity at 10 µM (TNF production [3]; [5]): 48 ± 12%

COc1ccc([C@@H]2Sc3ccccc3N(CCN(C)C)C(=O)[C@@H]2OC(C)=O)cc1 [Diltiazem, 1,5-Benzothiazepin-4(5H)-one, 3-(acetyloxy)-5-[2-(dimethylamino)ethyl]-2,3-dihydro-2-(4-methoxyphenyl)-, (2S-cis)-]
activity at 10 µM (TNF production [1]): 86 ± 16% | effectiveness against LPS-stimulated TNF production (in words) (TNF production [1]): much less effective | activity at 10 µM (TNF production [2]; Mus musculus): 47 ± 1%

COC(=O)C1=C(C)NC(C)=C(C(=O)OCCN(C)Cc2ccccc2)C1c1cccc([N+](=O)[O-])c1 (stereo not shown) [Nicardipine, 3,5-Pyridinedicarboxylic acid, 1,4-dihydro-2,6-dimethyl-4-(3-nitrophenyl)-, methyl 2-[methyl(phenylmethyl)amino]ethyl ester]
activity at 10 µM (TNF production [1]): 44 ± 1% | inhibition at 10 µM (TNF production [1]): 56% | activity at 10 µM (TNF production [2]; Mus musculus): 59 ± 35%

NC(N)=NC(=O)c1nc(Cl)c(N2CCCCCC2)nc1N [hexamethylamiloride]
effectiveness against LPS-stimulated TNF production (in words) (TNF production [2]; drug 10 µM): tremendous decrease | effect on TPA-stimulated levels of TNF (in words) (TNF production [3]; human keratinocytes, TPA 10 ng/mL, drug 10 µM): several fold higher

Fc1ccc(C(c2ccc(F)cc2)N2CCN(C/C=C/c3ccccc3)CC2)cc1 [flunarizine, Peperizine, 1-[bis(4-fluorophenyl)methyl]-4-(3-phenyl-2-propenyl)-, (E)]
inhibition at 10 µM (TNF production [2]; [4]): 63%

CSc1ccc2c(c1)N(CCC1CCCCN1C)c1ccccc1S2 (stereo not shown) [thioridazine]
inhibition at 10 µM (TNF production [2]; [4]): 60 to 70%

O=c1[nH]c2ccccc2n1C1CCN(CCCC(c2ccc(F)cc2)c2ccc(F)cc2)CC1 [pimozide]
inhibition at 10 µM (TNF production [2]; [4]): 60 to 70%

CC(C)(C)NCC(O)c1cc(O)cc(O)c1 (stereo not shown) [Terbutaline, terbutaline]
activity at 10 µM (TNF production [1]): 12 ± 4% | activity at 10 µM (TNF production [2]; Mus musculus): 33 ± 9% | activity at 10 µM (TNF production [3]; [5]): 36 ± 8%

CC(=O)CCCCn1c(=O)c2c(ncn2C)n(C)c1=O [Pentoxifylline, pentoxifylline]
activity at 10 µM (TNF production [1]): ≥ 100% | activity at 10 µM (TNF production [2]; Mus musculus): 43 ± 2% | inhibition at 10 µM (TNF production [2]; [4]): 57%

O=C1CCC(N2C(=O)c3ccccc3C2=O)C(=O)N1 (stereo not shown) [Thalidomide]
activity at 10 µM (TNF production [1]): 78 ± 9% | activity at 10 µM (TNF production [2]; Mus musculus): 67 ± 37% | activity at 10 µM (TNF production [3]; [5]): ≥ 100%

CC(C)COCC(CN(Cc1ccccc1)c1ccccc1)N1CCCC1 (stereo not shown) [Bepridil, 1-Pyrrolidieneethanamine, b-[(2-methylpropoxy)methyl]-N-phenyl-N-(phenylmethyl)]
activity at 10 µM (TNF production [1]): 77 ± 9% | activity at 10 µM (TNF production [2]; Mus musculus): 40 ± 4%

NS(=O)(=O)c1cc(C(=O)O)c(NCc2ccco2)cc1Cl [Furosemide, benzoic acid, 5-(aminosulfonyl)-4-chloro-2-[(2-furanylmethyl)amino]-]
activity at 10 µM (TNF production [2]; Mus musculus): 49 ± 4% | inhibition at 10 µM (TNF production [2]; [4]): ~49% | effectiveness against LPS-stimulated TNF production (in words) (TNF production [2]; drug 10 µM): comparable to amiloride

COc1ccc(CCN(C)CCC[C@](C#N)(c2ccc(OC)c(OC)c2)C(C)C)cc1OC [(+)-Verapamil, (+)-verapamil]
TNF LEVEL % Control (LPS alone); Ave. ± S.D. (TNF production [1]): 51±2 % Control

COCCOC(=O)C1=C(C)NC(C)=C(C(=O)OC(C)C)C1c1cccc([N+](=O)[O-])c1 (stereo not shown) [Nimodipine, nimodipine]
activity at 10 µM (TNF production [1]): 81 ± 4% | activity at 10 µM (TNF production [2]; Mus musculus): 37 ± 3% | activity at 10 µM (TNF production [3]; [5]): 15 ± 3%

CC(=O)S[C@@H]1CC2=CC(=O)CC[C@]2(C)[C@H]2CC[C@@]3(C)[C@@H](CC[C@@]34CCC(=O)O4)[C@H]12 [Spironolactone, spironolactone]
activity at 10 µM (TNF production [1]): 54 ± 8% | inhibition at 10 µM (TNF production [1]): 46% | effectiveness against LPS-stimulated TNF production (in words) (TNF production [1]): as effective as amiloride

CC/C(=C(\c1ccccc1)c1ccc(OCCN(C)C)cc1)c1ccccc1 [tamoxifen]
inhibition at 10 µM (TNF production [2]; [4]): ~65%

COc1ccc2c(c1)CCC(c1ccccc1)=C2c1ccc(OCCN2CCCC2)cc1 [nafoxidine]
inhibition at 10 µM (TNF production [2]; [4]): ~65%

COC(=O)C1=C(C)NC(C)=C(C(=O)OC)C1c1ccccc1[N+](=O)[O-] [Nifedipine]
activity at 10 µM (TNF production [1]): 119% | activity at 10 µM (TNF production [2]; Mus musculus): 79 ± 24% | activity at 10 µM (TNF production [3]; [5]): 88 ± 40%

COc1ccc(CCN(C)CCC[C@@](C#N)(c2ccc(OC)c(OC)c2)C(C)C)cc1OC [(-)-Verapamil, (-)-verapamil]
TNF LEVEL % Control (LPS alone); Ave. ± S.D. (TNF production [1]): 53±3 % Control

COC(=O)C1=C(C)NC(C)=C(C(=O)OC(C)(C)CN(C)CCC(c2ccccc2)c2ccccc2)C1c1cccc([N+](=O)[O-])c1 (stereo not shown) [Rec 15/2375]
TNF LEVEL % Control (LPS alone); Ave. ± S.D. (TNF production [1]): 57±15 % Control | TNF LEVEL % Control (LPS alone); Ave. ± S.D. (TNF production [2]): 33± 1 % Control

CN(C)c1nc(N)c(C(=O)N=C(N)N)nc1Cl [dimethylamiloride]
effectiveness against LPS-stimulated TNF production (in words) (TNF production [2]; drug 10 µM): same extent of inhibition as amiloride

O=C1c2c(O)cccc2Cc2cccc(O)c21 [dithranol]
inhibition at 10 µM (TNF production [2]; [4]): 67%

CCOC(=O)C1(c2ccccc2)CCN(CCC(C#N)(c2ccccc2)c2ccccc2)CC1 [Diphenoxylate, diphenoxylate]
activity at 10 µM (TNF production [3]; Homo sapiens): 68 ± 10%

COC(=O)C1=C(C)NC(C)=C(C(=O)OC(C)C)C1c1cccc2nonc12 (stereo not shown) [Isradipine, 3,5-Pyridinecarboxylic acid, 4-(4-benzofurazanyl)-l,4-dihydro-2,6-dimethyl, methyl 1-methylethyl ester]
activity at 10 µM (TNF production [1]): 77 ± 8% | effectiveness against LPS-stimulated TNF production (in words) (TNF production [1]): much less effective | effectiveness against LPS-stimulated TNF production (in words) (TNF production [2]; drug 10 µM): as effective as dexamethasone | activity at 10 µM (TNF production [3]; [5]): 60 ± 7%

NCC(O)c1ccc(O)c(O)c1 (stereo not shown) [Arterenol]
TNF LEVEL % Control (LPS alone); Ave. ± S.D. (TNF production [1]): 1±0.2 % Control | TNF LEVEL % Control (LPS alone); Ave. ± S.D. (TNF production [2]): 38±4 % Control | TNF LEVEL % Control (LPS alone); Ave. ± S.D. (TNF production [3]; HEK cells, DRUG [10 µM], stimulation by TPA 10 ng/mL): 47±10 % Control

CCCCNc1cc(C(=O)O)cc(S(N)(=O)=O)c1Oc1ccccc1 [bumetanide]
effectiveness against LPS-stimulated TNF production (in words) (TNF production [2]; drug 10 µM): minimal inhibition

Clc1ccc(C(c2ccc(Cl)cc2)n2cc[n+](CC(OCc3ccc(Cl)cc3Cl)c3ccc(Cl)cc3Cl)c2)cc1 (stereo not shown) [calmidazolium]
inhibition at 10 µM (TNF production [1]): 40 to 50%
